In US10570168B2, “2′ and/or 5′ amino-acid ester phosphoramidate 3′-deoxy adenosine derivatives as anti- cancer compounds” (NuCana plc, priority 2014, dated 2020):
Where two headings read alike, the source gives them in different places.

Assays:
Assay in all cases: Solid tumour and haematological malignancy assay (CellTiterGlo)
Format in all cases: cell-based
THP-1 = details: Homo sapiens; for EC50: read-out: EC50 (absolute EC50); for Emax: read-out: MI %
Protocol: (§1) In vitro viability assay were performed to assess the effects of compounds on cell viability in selected cell lines over 72 hr using the CellTiterGlo (CTG, Promega-G7573) assay. The tests were performed in duplicates with treatment of compounds at 9 points, 3.16 folds titration in 96 well plates over ˜72 hr. The compound starting concentrations were 198 mM. Cell viability assay using CellTiterGlo in 96-well plate were performed. Compound treatment 72 hrs, standard growth conditions, duplicates. Compounds were dissolved to 40 mM with thawed […]. Compounds were serially diluted at 3.16 fold in thawed DMSO, and warmed to 37° C. before being dissolved in media (20 μl+200 μl). After compounds were dissolved in media, media containing compounds were warmed to 37° C. in incubator and then compounds in media were added to cell plates ([…]) in duplicates. The compounds' final concentrations were from 198M to 19.9 nM. All compound solubilities were checked and recorded again, then the plates were transferred to CO2 tissue culture incubator immediately and incubated for 3 days. DMSO final concentration is 0.5%.

RPMI-8226 = details: Homo sapiens; for EC50: read-out: EC50 (absolute EC50); for Emax: read-out: MI %
Protocol: as §1

SW620 = details: Homo sapiens; for EC50: read-out: EC50 (absolute EC50); for Emax: read-out: MI %
Protocol: as §1

BxPC-3-Luc = details: read-out: EC50 (absolute EC50)
Protocol: as §1

MV4-11 = details: Homo sapiens; for EC50: read-out: EC50 (absolute EC50); for Emax: read-out: MI %
Protocol: as §1

Z138 = details: Homo sapiens; for EC50: read-out: EC50 (absolute EC50); for Emax: read-out: MI %
Protocol: as §1

NCI-H929 = details: Homo sapiens; for EC50: read-out: EC50 (absolute EC50); for Emax: read-out: MI %
Protocol: as §1

MOLT-4 = details: Homo sapiens; for EC50: read-out: EC50 (absolute EC50); for Emax: read-out: MI %
Protocol: as §1

RL = details: Homo sapiens; for EC50: read-out: EC50 (absolute EC50); for Emax: read-out: MI %
Protocol: as §1

HS445 = details: for EC50: read-out: EC50 (absolute EC50); for Emax: read-out: MI %
Protocol: as §1

K562 = details: Homo sapiens; for EC50: read-out: EC50 (absolute EC50); for Emax: read-out: MI %
Protocol: as §1, with “The tests were performed in duplicates with treatment of compounds at 9 points, 3.16 folds titration in 96 well plates over ˜72 hr. The compound starting concentrations were 198 mM.” left out, “Compounds were serially diluted at 3.16 fold in thawed DMSO, and warmed to 37° C. before being dissolved in media (20 μl+200 μl).” left out, “The compounds' final concentrations were from 198M to 19.9 nM.” left out

MCF7 = details: Homo sapiens; for EC50: read-out: EC50 (absolute EC50); for Emax: read-out: MI %
Protocol: as §1, with “The tests were performed in duplicates with treatment of compounds at 9 points, 3.16 folds titration in 96 well plates over ˜72 hr. The compound starting concentrations were 198 mM.” left out, “Compounds were serially diluted at 3.16 fold in thawed DMSO, and warmed to 37° C. before being dissolved in media (20 μl+200 μl).” left out, “The compounds' final concentrations were from 198M to 19.9 nM.” left out

HL-60 = details: Homo sapiens; for EC50: read-out: EC50 (absolute EC50); for Emax: read-out: MI %
Protocol: as §1, with “The tests were performed in duplicates with treatment of compounds at 9 points, 3.16 folds titration in 96 well plates over ˜72 hr. The compound starting concentrations were 198 mM.” left out, “Compounds were serially diluted at 3.16 fold in thawed DMSO, and warmed to 37° C. before being dissolved in media (20 μl+200 μl).” left out, “The compounds' final concentrations were from 198M to 19.9 nM.” left out

KG-1 = details: Homo sapiens; for EC50: read-out: EC50 (absolute EC50); for Emax: read-out: MI %
Protocol: as §1, with “The tests were performed in duplicates with treatment of compounds at 9 points, 3.16 folds titration in 96 well plates over ˜72 hr. The compound starting concentrations were 198 mM.” left out, “Compounds were serially diluted at 3.16 fold in thawed DMSO, and warmed to 37° C. before being dissolved in media (20 μl+200 μl).” left out, “The compounds' final concentrations were from 198M to 19.9 nM.” left out

HEL92.1.7 = details: Homo sapiens; for EC50: read-out: EC50 (absolute EC50); for Emax: read-out: MI %
Protocol: as §1, with “The tests were performed in duplicates with treatment of compounds at 9 points, 3.16 folds titration in 96 well plates over ˜72 hr. The compound starting concentrations were 198 mM.” left out, “Compounds were serially diluted at 3.16 fold in thawed DMSO, and warmed to 37° C. before being dissolved in media (20 μl+200 μl).” left out, “The compounds' final concentrations were from 198M to 19.9 nM.” left out

HT29 = details: Homo sapiens; for EC50: read-out: EC50 (absolute EC50); for Emax: read-out: MI %
Protocol: as §1, with “The tests were performed in duplicates with treatment of compounds at 9 points, 3.16 folds titration in 96 well plates over ˜72 hr. The compound starting concentrations were 198 mM.” left out, “Compounds were serially diluted at 3.16 fold in thawed DMSO, and warmed to 37° C. before being dissolved in media (20 μl+200 μl).” left out, “The compounds' final concentrations were from 198M to 19.9 nM.” left out

HepG2 = details: Homo sapiens; for EC50: read-out: EC50 (absolute EC50); for Emax: read-out: MI %
Protocol: as §1, with “The tests were performed in duplicates with treatment of compounds at 9 points, 3.16 folds titration in 96 well plates over ˜72 hr. The compound starting concentrations were 198 mM.” left out, “Compounds were serially diluted at 3.16 fold in thawed DMSO, and warmed to 37° C. before being dissolved in media (20 μl+200 μl).” left out, “The compounds' final concentrations were from 198M to 19.9 nM.” left out

CCRFCEM = details: Homo sapiens, CCRF-CEM; for EC50: read-out: EC50 (absolute EC50); for Emax: read-out: MI %
Protocol: as §1, with “The tests were performed in duplicates with treatment of compounds at 9 points, 3.16 folds titration in 96 well plates over ˜72 hr. The compound starting concentrations were 198 mM.” left out, “Compounds were serially diluted at 3.16 fold in thawed DMSO, and warmed to 37° C. before being dissolved in media (20 μl+200 μl).” left out, “The compounds' final concentrations were from 198M to 19.9 nM.” left out

MiaPaCa-2 = details: Homo sapiens; for EC50: read-out: EC50 (absolute EC50); for Emax: read-out: MI %
Protocol: as §1, with “The tests were performed in duplicates with treatment of compounds at 9 points, 3.16 folds titration in 96 well plates over ˜72 hr. The compound starting concentrations were 198 mM.” left out, “Compounds were serially diluted at 3.16 fold in thawed DMSO, and warmed to 37° C. before being dissolved in media (20 μl+200 μl).” left out, “The compounds' final concentrations were from 198M to 19.9 nM.” left out

SMILES: CC(NP(=O)(OC[C@@H]1C[C@@H](O)[C@H](n2cnc3c(N)nc(Cl)nc32)O1)Oc1cccc2ccccc12)C(=O)OCc1ccccc1 (stereo in doubt) [S, (2R)-benzyl 2-((((2S,4R,5R)-5-(6-amino-2-chloro-9H-purin-9-yl)-4-hydroxytetrahydrofuran-2-yl)methoxy)(naphthalen-1-yloxy)phosphorylamino)propanoate]
- EC50 (THP-1; THP-1, 72 h): 15 to 100 µM
- Emax (THP-1; THP-1, 72 h): 97%
- EC50 (RPMI-8226; RPMI-8226, 72 h): 15 to 100 µM
- Emax (RPMI-8226; RPMI-8226, 72 h): 99.6%
- EC50 (SW620; SW-620, 72 h): 15 to 100 µM
- Emax (SW620; SW-620, 72 h): 92.1%
- EC50 (BxPC-3-Luc; 72 h): 15 to 100 µM
- EC50 (MV4-11; MV4-11, 72 h): 5 to 15 µM
- Emax (MV4-11; MV4-11, 72 h): 101%
- EC50 (Z138; Z-138, 72 h): 15 to 100 µM
- Emax (Z138; Z-138, 72 h): 90.2%
- EC50 (NCI-H929; NCI-H929, 72 h): 5 to 15 µM
- Emax (NCI-H929; NCI-H929, 72 h): 102%
- EC50 (MOLT-4; MOLT-4, 72 h): 5 to 15 µM
- Emax (MOLT-4; MOLT-4, 72 h): 100%
- EC50 (RL; 72 h): 5 to 15 µM
- Emax (RL; 72 h): 100%
- EC50 (HS445; Hs 445, 72 h): 15 to 100 µM
- Emax (HS445; Hs 445, 72 h): 106%
- EC50 (K562; K562, 72 h): 15 to 100 µM
- Emax (K562; K562, 72 h): 101%
- EC50 (MCF7; MCF7, 72 h): 15 to 100 µM
- Emax (MCF7; MCF7, 72 h): 101%
- EC50 (HL-60; HL-60, 72 h): 5 to 15 µM
- Emax (HL-60; HL-60, 72 h): 102%
- EC50 (KG-1; KG-1, 72 h): 15 to 100 µM
- Emax (KG-1; KG-1, 72 h): 99%
- EC50 (HEL92.1.7; HEL 92.1.7, 72 h): 5 to 15 µM
- Emax (HEL92.1.7; HEL 92.1.7, 72 h): 100%
- EC50 (HT29; HT-29, 72 h): 15 to 100 µM
- Emax (HT29; HT-29, 72 h): 88.1%
- EC50 (HepG2; HepG2, 72 h): 15 to 100 µM
- Emax (HepG2; HepG2, 72 h): 84.6%
- EC50 (CCRFCEM; 72 h): 5 to 15 µM
- Emax (CCRFCEM; 72 h): 100%
- EC50 (MiaPaCa-2; MIA PaCa-2, 72 h): 15 to 100 µM
- Emax (MiaPaCa-2; MIA PaCa-2, 72 h): 98.2%

SMILES: Nc1nc(Cl)nc2c1ncn2[C@@H]1O[C@H](CO)C[C@H]1O [2-Cl-cordycepin, 3′-deoxy-2-chloroadenosine, reference compound]
- Emax (THP-1; THP-1, 72 hr, Table VII): 24.1%
- EC50 (THP-1; THP-1, 72 hr): > 100 µM
- Emax (RPMI-8226; RPMI-8226, 72 hr, Table VII): 29%
- EC50 (RPMI-8226; RPMI-8226, 72 hr): > 100 µM
- Emax (SW620; SW-620, SW620, 72 hr, Table VII): 36.3%
- EC50 (SW620; SW-620, SW620, 72 hr): > 100 µM
- EC50 (BxPC-3-Luc; BxPC-3-Luc, 72 hr): > 100 µM
- Emax (MV4-11; MV4-11, 72 hr, Table VII): 100%
- EC50 (MV4-11; MV4-11, 72 hr): 15 to 100 µM
- Emax (Z138; Z-138, 72 hr, Table VII): 99.5%
- EC50 (Z138; Z-138, 72 hr): 15 to 100 µM
- Emax (NCI-H929; NCI-H929, 72 hr, Table VII): 93.6%
- EC50 (NCI-H929; NCI-H929, 72 hr): 5 to 15 µM
- Emax (MOLT-4; MOLT-4, 72 hr, Table VII): 80.4%
- EC50 (MOLT-4; MOLT-4, 72 hr): > 100 µM
- Emax (RL; 72 hr, Table VII): 84.1%
- EC50 (RL; 72 hr): 15 to 100 µM
- Emax (HS445; Hs 445, HS445, 72 hr, Table VII): -1.9%
- EC50 (HS445; Hs 445, HS445, 72 hr): > 100 µM
- Emax (K562; K562, 72 hr, Table VII): 37.6%
- EC50 (K562; K562, 72 hr): > 100 µM
- Emax (MCF7; MCF7, MCF-7, 72 hr, Table VII): -0.9%
- EC50 (MCF7; MCF7, MCF-7, 72 hr): > 100 µM
- Emax (HL-60; HL-60, 72 hr, Table VII): 84.4%
- EC50 (HL-60; HL-60, 72 hr): 15 to 100 µM
- Emax (KG-1; KG-1, 72 hr, Table VII): 4.3%
- EC50 (KG-1; KG-1, 72 hr): > 100 µM
- Emax (HEL92.1.7; HEL.92.1.7, 72 hr, Table VII): 94.3%
- EC50 (HEL92.1.7; HEL.92.1.7, 72 hr): 5 to 15 µM
- Emax (HT29; HT-29, HT29, 72 hr, Table VII): 4.4%
- EC50 (HT29; HT-29, HT29, 72 hr): > 100 µM
- Emax (HepG2; HepG2, 72 hr, Table VII): 31.1%
- EC50 (HepG2; HepG2, 72 hr): > 100 µM
- Emax (CCRFCEM; 72 hr, Table VII): 98.1%
- EC50 (CCRFCEM; 72 hr): 15 to 100 µM
- Emax (MiaPaCa-2; MIA PaCa-2, Mia-Pa-Ca-2, 72 hr, Table VII): 17.7%
- EC50 (MiaPaCa-2; MIA PaCa-2, Mia-Pa-Ca-2, 72 hr): > 100 µM
